Test results taken from ChEMBL document CHEMBL3784933, “Synthesis and antitumor evaluation of trimethoxyanilides based on 4(3H)-quinazolinone scaffolds” (2016).

Key:
Type in all cases: functional
[1] = Cytotoxicity against human SNB75 cells assessed as growth inhibition at 10 uM after 48 hrs by SRB assay; settings: SNB-75, 48 h, read-out: GI
[2] = tested on: NCI-H460; experiment: Cytotoxicity against human NCI-H460 cells assessed as growth inhibition at 10 uM after 48 hrs by SRB assay; settings: NCI-H460, 48 h, read-out: GI
[3] = Cytotoxicity against human HOP62 cells assessed as growth inhibition at 10 uM after 48 hrs by SRB assay; settings: HOP-62, 48 h, read-out: GI
[4] = Cytotoxicity against human SF268 cells assessed as growth inhibition at 10 uM after 48 hrs by SRB assay; settings: SF-268, 48 h, read-out: GI
[5] = Cytotoxicity against human NCI-H322 cells assessed as growth inhibition at 10 uM after 48 hrs by SRB assay; settings: NCI-H322, 48 h, read-out: GI
[6] = Cytotoxicity against human UO31 cells assessed as growth inhibition at 10 uM after 48 hrs by SRB assay; settings: UO-31, 48 h, read-out: GI
[7] = Cytotoxicity against human BT549 cells assessed as growth inhibition at 10 uM after 48 hrs by SRB assay; settings: BT-549, 48 h, read-out: GI
[8] = tested on: SR; experiment: Cytotoxicity against human SR cells assessed as growth inhibition at 10 uM after 48 hrs by SRB assay; settings: read-out: GI
[9] = Cytotoxicity against human UACC257 cells assessed as growth inhibition at 10 uM after 48 hrs by SRB assay; settings: UACC-257, 48 h, read-out: GI
[10] = Cytotoxicity against human OVCAR4 cells assessed as growth inhibition at 10 uM after 48 hrs by SRB assay; settings: OVCAR-4, 48 h, read-out: GI
[11] = Cytotoxicity against human HCT116 cells assessed as growth inhibition at 10 uM after 48 hrs by SRB assay; settings: HCT-116, 48 h, read-out: GI
[12] = Cytotoxicity against human LOXIMVI cells assessed as growth inhibition at 10 uM after 48 hrs by SRB assay; settings: LOX IMVI, read-out: GI
[13] = tested on: MDA-MB-468; experiment: Cytotoxicity against human MDA-MB-468 cells assessed as growth inhibition at 10 uM after 48 hrs by SRB assay; settings: MDA-MB-468, 48 h, read-out: GI
[14] = Cytotoxicity against human NCI-ADR-RES cells assessed as growth inhibition at 10 uM after 48 hrs by SRB assay; settings: read-out: GI
[15] = Cytotoxicity against human RPMI8226 cells assessed as growth inhibition at 10 uM after 48 hrs by SRB assay; settings: RPMI-8226, 48 h, read-out: GI
[16] = tested on: SN12C; experiment: Cytotoxicity against human SN12C cells assessed as growth inhibition at 10 uM after 48 hrs by SRB assay; settings: read-out: GI
[17] = tested on: A549; experiment: Cytotoxicity against human A549 cells assessed as growth inhibition at 10 uM after 48 hrs by SRB assay; settings: A549, 48 h, read-out: GI
[18] = tested on: CCRF-CEM; experiment: Cytotoxicity against human CCRF-CEM cells assessed as growth inhibition at 10 uM after 48 hrs by SRB assay; settings: read-out: GI
[19] = Cytotoxicity against human SKOV3 cells assessed as growth inhibition at 10 uM after 48 hrs by SRB assay; settings: SK-OV-3, 48 h, read-out: GI
[20] = tested on: Malme-3M; experiment: Cytotoxicity against human MALME-3M cells assessed as growth inhibition at 10 uM after 48 hrs by SRB assay; settings: read-out: GI
[21] = tested on: SK-MEL-5; experiment: Cytotoxicity against human SK-MEL-5 cells assessed as growth inhibition at 10 uM after 48 hrs by SRB assay; settings: SK-MEL-5, 48 h, read-out: GI
[22] = Cytotoxicity against human SF539 cells assessed as growth inhibition at 10 uM after 48 hrs by SRB assay; settings: SF-539, 48 h, read-out: GI
[23] = tested on: U-251; experiment: Cytotoxicity against human U251 cells assessed as growth inhibition at 10 uM after 48 hrs by SRB assay; settings: U-251, 48 h, read-out: GI
[24] = tested on: NCI-H226; experiment: Cytotoxicity against human NCI-H226 cells assessed as growth inhibition at 10 uM after 48 hrs by SRB assay; settings: NCI-H226, 48 h, read-out: GI
[25] = tested on: MDA-MB-231; experiment: Cytotoxicity against human MDA-MB-231 cells assessed as growth inhibition at 10 uM after 48 hrs by SRB assay; settings: MDA-MB-231, 48 h, read-out: GI
[26] = tested on: ACHN; experiment: Cytotoxicity against human ACHN cells assessed as growth inhibition at 10 uM after 48 hrs by SRB assay; settings: read-out: GI
[27] = Cytotoxicity against human OVCAR3 cells assessed as growth inhibition at 10 uM after 48 hrs by SRB assay; settings: OVCAR-3, 48 h, read-out: GI
[28] = Cytotoxicity against human IGROV1 cells assessed as growth inhibition at 10 uM after 48 hrs by SRB assay; settings: IGROV-1, 48 h, read-out: GI
[29] = Cytotoxicity against human Caki1 cells assessed as growth inhibition at 10 uM after 48 hrs by SRB assay; settings: CAKI-1, 48 h, read-out: GI
[30] = tested on: T47D; experiment: Cytotoxicity against human T47D cells assessed as growth inhibition at 10 uM after 48 hrs by SRB assay; settings: read-out: GI
[31] = Cytotoxicity against human UACC62 cells assessed as growth inhibition at 10 uM after 48 hrs by SRB assay; settings: UACC-62, 48 h, read-out: GI
[32] = Cytotoxicity against human RXF393 cells assessed as growth inhibition at 10 uM after 48 hrs by SRB assay; settings: RXF 393, 48 h, read-out: GI
[33] = Cytotoxicity against human PC3 cells assessed as growth inhibition at 10 uM after 48 hrs by SRB assay; settings: PC-3, 48 h, read-out: GI
[34] = Cytotoxicity against human SF295 cells assessed as growth inhibition at 10 uM after 48 hrs by SRB assay; settings: SF-295, 48 h, read-out: GI
[35] = tested on: SK-MEL-2; experiment: Cytotoxicity against human SK-MEL-2 cells assessed as growth inhibition at 10 uM after 48 hrs by SRB assay; settings: SK-MEL-2, 48 h, read-out: GI
[36] = Cytotoxicity against human HOP92 cells assessed as growth inhibition at 10 uM after 48 hrs by SRB assay; settings: HOP-92, 48 h, read-out: GI
[37] = Cytotoxicity against human DU145 cells assessed as growth inhibition at 10 uM after 48 hrs by SRB assay; settings: DU-145, 48 h, read-out: GI
[38] = tested on: MCF7; experiment: Cytotoxicity against human MCF7 cells assessed as growth inhibition at 10 uM after 48 hrs by SRB assay; settings: MCF7, 48 h, read-out: GI
[39] = Cytotoxicity against human SNB19 cells assessed as growth inhibition at 10 uM after 48 hrs by SRB assay; settings: SNB-19, 48 h, read-out: GI
[40] = tested on: NCI-H23; experiment: Cytotoxicity against human NCI-H23 cells assessed as growth inhibition at 10 uM after 48 hrs by SRB assay; settings: NCI-H23, 48 h, read-out: GI
[41] = tested on: A498; experiment: Cytotoxicity against human A498 cells assessed as growth inhibition at 10 uM after 48 hrs by SRB assay; settings: A498, 48 h, read-out: GI
[42] = Cytotoxicity against human OVCAR8 cells assessed as growth inhibition at 10 uM after 48 hrs by SRB assay; settings: OVCAR-8, 48 h, read-out: GI
[43] = tested on: NCI-H522; experiment: Cytotoxicity against human NCI-H522 cells assessed as growth inhibition at 10 uM after 48 hrs by SRB assay; settings: NCI-H522, 48 h, read-out: GI
[44] = tested on: 786-0; experiment: Cytotoxicity against human 786-0 cells assessed as growth inhibition at 10 uM after 48 hrs by SRB assay; settings: 786-0, 48 h, read-out: GI
[45] = tested on: NCI-H322M; experiment: Cytotoxicity against human NCI-H322M cells assessed as growth inhibition at 10 uM after 48 hrs by SRB assay; settings: read-out: GI
[46] = Cytotoxicity against human MOLT4 cells assessed as growth inhibition at 10 uM after 48 hrs by SRB assay; settings: MOLT-4, 48 h, read-out: GI
[47] = tested on: K562; experiment: Cytotoxicity against human K562 cells assessed as growth inhibition at 10 uM after 48 hrs by SRB assay; settings: K562, 48 h, read-out: GI
[48] = Cytotoxicity against human Hs 578T cells assessed as growth inhibition at 10 uM after 48 hrs by SRB assay; settings: read-out: GI
[49] = Cytotoxicity against human SW620 cells assessed as growth inhibition at 10 uM after 48 hrs by SRB assay; settings: SW-620, 48 h, read-out: GI
[50] = Cytotoxicity against human OVCAR5 cells assessed as growth inhibition at 10 uM after 48 hrs by SRB assay; settings: OVCAR-5, 48 h, read-out: GI

SMILES: COc1cc(NC(=O)CCSc2nc3ccccc3c(=O)n2-c2ccc(F)cc2)cc(OC)c1OC
- inhibition of growth at 10 µM [1]: 117%
- inhibition of growth at 10 µM [2]: 18%
- inhibition of growth at 10 µM [3]: 40%
- inhibition of growth at 10 µM [4]: 34%
- inhibition of growth at 10 µM [5]: 14%
- inhibition of growth at 10 µM [6]: 23%
- inhibition of growth at 10 µM [7]: 28%
- inhibition of growth at 10 µM [8]: 11%
- inhibition of growth at 10 µM [9]: 15%
- inhibition of growth at 10 µM [10]: 104%
- inhibition of growth at 10 µM [11]: 30%
- inhibition of growth at 10 µM [12]: 12%
- inhibition of growth at 10 µM [13]: 21%
- inhibition of growth at 10 µM [14]: 28%
- inhibition of growth at 10 µM [15]: 17%
- inhibition of growth at 10 µM [16]: 20%
- inhibition of growth at 10 µM [17]: 28%
- inhibition of growth at 10 µM [18]: 67%
- inhibition of growth at 10 µM [19]: 70%
- inhibition of growth at 10 µM [20]: 40%
- inhibition of growth at 10 µM [21]: 11%
- inhibition of growth at 10 µM [22]: 34%
- inhibition of growth at 10 µM [23]: 42%
- inhibition of growth at 10 µM [24]: 38%
- inhibition of growth at 10 µM [25]: 47%
- inhibition of growth at 10 µM [26]: 39%
- inhibition of growth at 10 µM [27]: 18%
- inhibition of growth at 10 µM [28]: 25%
- inhibition of growth at 10 µM [29]: 22%
- inhibition of growth at 10 µM [30]: 39%
- inhibition of growth at 10 µM [31]: 32%
- inhibition of growth at 10 µM [32]: 40%
- inhibition of growth at 10 µM [33]: 25%
- inhibition of growth at 10 µM [34]: 40%
- inhibition of growth at 10 µM [35]: 47%
- inhibition of growth at 10 µM [36]: 103%
- inhibition of growth at 10 µM [37]: 21%
- inhibition of growth at 10 µM [38]: 22%
- inhibition of growth at 10 µM [39]: 32%
- inhibition of growth at 10 µM [40]: 21%
- inhibition of growth at 10 µM [41]: 22%
- inhibition of growth at 10 µM [42]: 61%
- inhibition of growth at 10 µM [43]: 68%

SMILES: COc1cc(NC(=O)CCSc2nc3ccc(C)cc3c(=O)n2-c2ccccc2)cc(OC)c1OC
- inhibition of growth at 10 µM [1]: 50%
- inhibition of growth at 10 µM [44]: 21%
- inhibition of growth at 10 µM [4]: 34%
- inhibition of growth at 10 µM [6]: 47%
- inhibition of growth at 10 µM [7]: 12%
- inhibition of growth at 10 µM [45]: 19%
- inhibition of growth at 10 µM [10]: 23%
- inhibition of growth at 10 µM [11]: 16%
- inhibition of growth at 10 µM [12]: 62%
- inhibition of growth at 10 µM [14]: 26%
- inhibition of growth at 10 µM [15]: 27%
- inhibition of growth at 10 µM [16]: 17%
- inhibition of growth at 10 µM [46]: 43%
- inhibition of growth at 10 µM [47]: 10%
- inhibition of growth at 10 µM [48]: 14%
- inhibition of growth at 10 µM [17]: 15%
- inhibition of growth at 10 µM [18]: 35%
- inhibition of growth at 10 µM [49]: 13%
- inhibition of growth at 10 µM [20]: 13%
- inhibition of growth at 10 µM [22]: 17%
- inhibition of growth at 10 µM [23]: 20%
- inhibition of growth at 10 µM [25]: 53%
- inhibition of growth at 10 µM [26]: 24%
- inhibition of growth at 10 µM [29]: 29%
- inhibition of growth at 10 µM [30]: 19%
- inhibition of growth at 10 µM [31]: 24%
- inhibition of growth at 10 µM [32]: 29%
- inhibition of growth at 10 µM [33]: 36%
- inhibition of growth at 10 µM [34]: 13%
- inhibition of growth at 10 µM [50]: 12%
- inhibition of growth at 10 µM [36]: 40%
- inhibition of growth at 10 µM [39]: 17%
- inhibition of growth at 10 µM [41]: 45%
- inhibition of growth at 10 µM [42]: 16%
- inhibition of growth at 10 µM [43]: 80%
